We go through two compounds from paper PMC11503492, “Activity-Based DNA-Encoded Library Screening for Selective Inhibitors of Eukaryotic Translation” (ACS Central Science, 2024).

Test [1] has as its system PCSK9-FS[1:33]-GFP translation. Put plainly: Microfluidic activity-based DEL counter screen in WG IVTT droplets, PCSK9-FS[1:33]-GFP, hit k class by sequencing. In kind it is biochemical, wheat germ. The conditions noted are these: number of times hit structure observed on distinct beads, summed across PCSK9-FS[1:33]-GFP screens; *** p < 0.001, NS not significant. As for the experimental part:
The validated PF846-inspired library was screened to discover novel translation inhibitors. DEL beads were encapsulated in microfluidic droplets of WG IVTT and irradiated with UV in flow to liberate DEL members into the droplets. The photodosed droplets were incubated and sorted based on fluorescence.[25] PCSK9[1:33]-GFP was chosen as a proof-of-concept target, and PCSK9-FS[1:33]-GFP was used as a counter screen target to identify nonselective compounds. PC-HygB were mixed with DEL beads and screened in the microfluidic device for inhibitors of translation. […] Droplet generation, bead introduction, and library and control bead hit rate were uniform during the screen (Figure 3, bottom).
Hit collection DNA tags from the PCSK9[1:33]-GFP and PCSK9-FS[1:33]-GFP screens were sequenced to deduce the structures of molecules that inhibited PCSK9[1:33]- or PCSK9-FS[1:33]-GFP translation. Hit structure k class, the number of times a given hit structure is observed on distinct beads,[31] was summed across screens and visualized as a heat map (Figure 4A). […] The combined hit sets for the two templates contained 121 unique hits with k ≥ 17 across the two screening campaigns. The most frequently observed cycle 1 starter BBs were 1 and 2, which share an 8-methylisoquinoline moiety, but differ in the vector for cycle 2 carboxylic acid connection, and 3, which contains an N-methylazaindole moiety. The most frequently identified cycle 2 tails included carboxylic acids 4–7. […] Substituted pyrazole 6 and pyridyl-benzimidazole 7 also appeared frequently with the aforementioned starters. There were 5 hits that appeared with high k class in both PCSK9[1:33]-GFP and PCSK9[1:33]-FS-GFP screening campaigns.
319 the droplet experiment to homogenize the bead suspension. Syringes were connected to
320 fluidic inputs with microbore Tygon tubing (0.01” x 0.03” IC × OD). Droplet generation oil
321 (OIL1) was 1% picosurf in HFE. Spacing (OIL2) and pinning (OIL3) oils were neat HFE.
322 Assay reagents were driven by displacement syringe pumps (Legato 100, KD Scientific,
323 Holliston, MA) through the circuit. OIL2 and OIL3 were initially flowed (22 µL/min and
324 12 µL/min, respectively) and hit and waste shunt tubing were clamped to backfill the
325 circuit. Once the incubator was filled with oil, the hit and waste tubing were unclamped
326 and back shunts were clamped. AQ1, AQ2, and OIL1 flows were initiated (960 nL/min,
327 640 nL/min, and 1200 nL/min, respectively) and held constant during the screen. Once
328 droplet generation equilibrated (∼10 min), the main shunt was clamped and droplets
329 started to fill the incubator. When droplets filled the incubator and entered the sorting
330 region, data acquisition and screening was initiated.
331 The custom confocal LIF detection setup and LabView code were previously described.S3
332 Briefly, photon counting PMTs (H7828, Hamamatsu, Middlesex, NJ) were used to detect
333 droplet fluorescence emission using a custom two-channel (520 and 570 nm) confocal mi-
334 croscope with laser excitation (488 nm, 20 mW, OBIS-488 20LS, Coherent Inc., Santa Clara,
335 CA). A data acquisition board (DAQ, NI, USB-6341, National Instruments) was used to
336 digitize PMT signal, which was binned into counts, and in-house LabView code was used
337 to control acquisition and execute droplet sorting decisions. Signal was smoothed in real-
338 time using median-filter smoothing (width = 3). Droplets were identified by the 570 nm
339 channel signal and the maximum signal in the 520 nm channel (max = countsn-1 when
340 countsn <countsn-1) was set as the droplet peak value. A roaming sort threshold was
342 the 520 nm channel. The threshold was calculated as µ - 5σ, where µ andσ were the mean
343 and standard deviation of the previous 300 droplets’ fluorescence values, respectively. Hit
344 droplets were not included in the calculation of droplet mean and standard deviation. A […]
On the technique in general: Counterscreens check selectivity or assay interference.

Test [2] concerns MST1[1:39]-GFP translation. The test is described as follows: WG IVTT activity assay, MST1[1:39]-GFP template. The test is classed as biochemical, wheat germ. The conditions noted are these: WG IVTT dose-response. As to the method: page 21: 421 region sequences were matched to an alpha numeric DNA region identifier (11[…], respectively), while allowing a 1-bp mutation per encoding region. 423 No insertions or deletions were tolerated. […] A sum of UMI counts for all remaining unique combinations 429 of encoding region identifiers was then determined using a UMI aggregation algorithm; 430 1 bp mutations were considered the same UMI. Encoding region identifiers were then 431 converted to library BB identifiers per the library design with an associated UMI count. 432 Any encoding region/ bead-specific barcode combinations with a UMI count below a 433 manually determined threshold (10) were discarded. The remaining ”valid beads” were 434 aggregated by cycle 1/2 BB combinations and the number of unique encoding regions 435 observed for each BB combination defined the k-class for that BB combination.S8 436 Microplate IVTT Assays 437 Wheat germ lysate IVTT plate assays were prepared as 5 μL reactions. […] Template (1 μL) was added and reaction 440 progress was immediately monitored (λex = 480 nm, λem = 530 nm, 27 °C, 2 h). […] activity was calculated using the slope of fluorescence increase over time (at 15-30 442 min post reaction initiation) for compound samples relative to that of the DMSO vehicle 443 control. […]

For test [3], the system named is PCSK9[1:33]-GFP translation from mRNA. The test is described as follows: IVTT activity assay of PCSK9[1:33]-GFP initiated with RNA template. The test is classed as biochemical. As for the experimental part: Figure S10. Activity of compounds 8 and 9 on transcription. (A) Screening hits 8 and 9 were analyzed in dose-response IVTT activity assays of PCSK9[1:33]-GFP initiated with DNA (black) and RNA (gray) template. (B) Products of PCSK9[1:33]-GFP T7 transcription reactions incubated with DMSO, screening hits 8 and 9, or PF846 were visualized on a 1.5% agarose gel
(1 picture or pasted object on this page, not shown here)

Structures are written as SMILES.

Turning to `Cc1cccc2ccnc(N(C(=O)[C@H]3CCCN(C(=O)c4cccc5c(C#N)c[nH]c45)C3)[C@@H]3CCCNC3)c12` [Compound 8], the “k class PCSK9-FS” value in test [1] was determined as 0. Moreover, in test [2], the “activity on MST1[1:39]-GFP translation (in words)” value is “inactive”. Also, the “activity when translation initiated from mRNA rather than plasmid DNA (in words)” value in test [3] is “active”.
With `Cc1cccc2ccnc(N(C(=O)C3CCN(C(=O)c4cccc5c(C#N)c[nH]c45)CC3)[C@@H]3CCCNC3)c12` [Compound 9], in test [1], the “k class PCSK9-FS” value is recorded as 18. Also, the “activity when translation initiated from mRNA rather than plasmid DNA (in words)” value in test [3] was “inactive”.
